In patent publication US6534523B1, “Hepatitis C inhibitor tri-peptides” (Boehringer Ingelheim (Canada) Ltd., priority 1998, dated 2003) one finds IC50 data, which are given here for 1 compound.

SMILES strings stand for the structures.

The target of test [1] is bovine pancreatic α-chymotrypsin (Bos taurus, UniProt P00766). The test is described as follows: Specificity assay (Example 40), bovine pancreatic α-chymotrypsin. The format is biochemical. Particulars: read-out: α-Chym. activity in the specificity assay of Example 40. As for the experimental part:
The specificity of the compounds was determined against a variety of serine proteases: human leukocyte elastase, porcine pancreatic elastase and bovine pancreatic α-chymotrypsin and one cysteine protease: human liver cathepsin B. In all cases a 96-well plate format protocol using a calorimetric p-nitroaniline (pNA) substrate specific for each enzyme was used. Each assay included a 1 h enzyme-inhibitor pre-incubation at 30° C. followed by addition of substrate and hydrolysis to ≈30% conversion as measured on a UV Thermomax® microplate reader. Substrate concentrations were kept as low as possible compared to KM to reduce substrate competition. Compound concentrations varied from 300 to 0.06 μM depending on their potency.
The final conditions for each assay were as follows:
50 mM Tris-HCl pH 8, 0.5 M Na2SO4, 50 mM NaCl, 0.1 mM EDTA, 3% DMSO, 0.01% Tween-20 with;
[100 μM Succ-AAPF-pNA and 250 pM α-chymotrypsin], [133 μM Succ-AAA-pNA and 8 nM porcine elastase], [133 μM Succ-AAV-pNA and 8 nM leukocyte elastase]; or
The sequential 2-fold dilutions of the inhibitor solution were performed on a separate plate by the liquid handler using 50 mM Tris-HCl pH 8, 50 mM NaCl, 0.1 mM EDTA, 0.02% Tween-20, 15% DMSO. All other specificity assays were performed in a similar fashion.
The percentage of inhibition was calculated using the formula:
[1-((UVinh−UVblank)/(UVctl−UVblank))]×100 […]

Test [2] has as its target HCV NS3 protease (UniProt P26663). The format is biochemical, HCV genotype 1b. Also noted: rows headed: IC50 (μM); IC50 (μM). Particulars: Table 6.

HCV NS3 protease, sequence (P26663 1027-1206, other chains not shown): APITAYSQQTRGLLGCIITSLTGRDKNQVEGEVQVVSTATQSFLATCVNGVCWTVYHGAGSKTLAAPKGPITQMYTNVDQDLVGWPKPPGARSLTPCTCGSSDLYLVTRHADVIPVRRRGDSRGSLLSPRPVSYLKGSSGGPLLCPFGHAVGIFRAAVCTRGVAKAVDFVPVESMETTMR

With `C=C[C@@H]1C[C@]1(NC(=O)[C@@H]1C[C@@H](Oc2cc(-c3ccccc3)nc3cc(OC)ccc23)CN1C(=O)[C@@H](NC(=O)OC(C)(C)C)C(C)C)C(=O)O` [compound 601], the IC50 in test [1] was above 75000 nM; in test [2], 50 nM.
